# Entries after “also recorded” stand apart in the source; their conditions may differ.
# Columns and labels:
# humans = conditions: literature (Arden et al. 1986); cited from earlier work
# Xenopus laevis tadpoles [1] = conditions: literature (Husain et al. 2003); cited from earlier work
# [2] = tested on: critically ill trauma patients; conditions: critically ill trauma patients sedated with etomidate vs. benzodiazepines (28%); Watt and Ledingham 1984; cited from earlier work
# rats [3] = test: Rat adrenocortical suppression (ACTH1-24-stimulated serum corticosterone); conditions: IV bolus 2×ED50 (14 mg/kg carboetomidate, 2 mg/kg etomidate), 15 min after ACTH1-24
# Method: Immediately after weighing and IV catheter placement, dexamethasone (0.2 mg/kg IV; American Regent, Shirley, N.Y.) was administered to each rat to inhibit endogenous adrenocorticotropic hormone (ACTH) release, to suppress baseline corticosterone production, and to inhibit the variable stress response to restraint and handling. […] The concentrations of carboetomidate and etomidate in DMSO were 40 and 5.7 mg/ml, respectively. Immediately after hypnotic or vehicle administration, ACTH1-24 (25 μg/kg; Sigma-Aldrich Chemical Co, St. Louis, Mo.) was given intravenously to stimulate corticosterone production. Fifteen minutes later, a second blood sample was drawn to measure the ACTH1-24-stimulated serum corticosterone concentration. ACTH1-24 was dissolved in 1 mg/ml of deoxygenated water as stock, aliquoted, and frozen (−20° C.); a fresh aliquot was thawed just before each use. Rats in all three groups (carboetomidate, etomidate, and vehicle) received the same volume of DMSO (350 μl/kg).
# Blood samples were allowed to clot at room temperature (10-60 min) before centrifugation at 3,500 g for 5 min. Serum was carefully expressed from any resulting superficial fibrin clot using a clean pipette tip before a second centrifugation at 3,500 g for 5 min. After the second centrifugation, the resultant clot-free serum layer was transferred to a fresh vial for a final, high-speed centrifugation (16,000 g, for 5 min) to pellet any contaminating red blood cells or particulates. The serum was transferred to a clean vial and promptly frozen (−20° C.) pending corticosterone measurement. After thawing and heat inactivation of corticosterone-binding globulins (65° C. for 20 min), serum baseline and ACTH1-24-stimulated corticosterone concentrations were quantified using an enzyme-linked immunosorbent assay (Diagnostic Systems Laboratories, Webster, Tex.) and a 96-well plate reader (Molecular Devices, Sunnyvale, Calif.).
# Male Sprague Dawley rats were pre-treated with dexamethasone to inhibit endogenous ACTH production and minimize baseline serum corticosterone concentrations. […]
# rats [4] = test: Rat hemodynamics (mean blood pressure); conditions: IV; for effect on mean blood pressure relative to DMSO vehicle (FIG. 7B): 14 mg/kg carboetomidate, 2 mg/kg etomidate (2×ED50); for effect on mean blood pressure, comparison of three anesthetics (FIG. 7A): twice ED50 for LORR (8 mg/kg propofol, 2 mg/kg etomidate, 14 mg/kg carboetomidate)
# Method: Femoral arterial catheters, tunneled between the scapulas, were preimplanted by the vendor (Charles River Laboratories). Animals were fully recovered from the placement procedure on arrival.
# On the day of study, after weighing and lateral tail vein IV catheter placement, rats were restrained in the acrylic tube with a tail exit port and allowed to acclimate for approximately 10 to 20 min before data collection. […] All data were acquired and analyzed using LabView Software (version 8.5 for Macintosh OS X; National Instruments).
# Carboetomidate (40 mg/ml) dissolved in DMSO, etomidate (5.7 mg/ml) dissolved in DMSO, or DMSO vehicle alone as a control was administered through the tail vein catheter followed by approximately 1-ml normal saline flush.
# The average mean blood pressure was calculated at each 30-second epoch during this study period.
# rats [5] = test: Loss of righting reflex in rats after IV bolus; assay type: in vivo, Sprague-Dawley rats; conditions: for anesthetic toxicity in rats: highest doses; for slope of duration of anesthesia versus logarithm of anesthetic dose: time to spontaneous righting; for onset time for LORR / onset time for LORR, range: IV, equihypnotic doses 4×ED50 (28 mg/kg carboetomidate, 4 mg/kg etomidate); for time to LORR after IV bolus (in words): doses sufficient to produce LORR
# Method: Rats: Rats were briefly restrained in a 3-inch diameter, 9-inch long acrylic chamber with a tail exit port. The desired dose of carboetomidate in dimethyl sulfoxide (DMSO; typically at 40 mg/ml) was injected through a lateral tail vein catheter followed by an approximately 1-ml normal saline flush. After injection, rats were removed from the restraint device and turned supine. […] A stopwatch was used to measure the duration of LORR, which was defined as the time from carboetomidate injection until the animal spontaneously righted itself. The ED50 for LORR on bolus administration was determined from the dose dependence of LORR using the method of Waud.26 Onset time for LORR was determined separately by injecting rats with 28 mg/kg of carboetomidate (40 mg/ml in DMSO) or 4 mg/kg of etomidate (5.7 mg/ml in DMSO) through a lateral tail vein catheter followed by an approximately 1-ml normal saline flush. After injection, rats were immediately removed from the restraint device and repeatedly turned supine until they no longer spontaneously righted. The onset time was defined as the time from injection until LORR occurred.
# Etomidate or carboetomidate was administered to Sprague Dawley rats as an IV bolus into their tail veins. […] LORR was defined as the time from drug injection until the animal spontaneously righted itself. The ED50 for LORR upon bolus anesthetic administration was determined from the anesthetic dose-dependence of LORR.
# [6] = target: T1, human α1β2γ2L GABAA receptors (Homo sapiens, UniProt P14867+P47870); conditions: 4 μM etomidate, inventors' previous study; cited from earlier work
# T1 construct: expressed in transfected cells; host or cells: Xenopus laevis oocytes injected with mRNA (subunit ratio 1:1:2)
# Xenopus laevis tadpoles [7] = test: Tadpole loss of righting reflex (LORR) assay; assay type: in vivo
# Method: Tadpoles: Groups of five early prelimb-bud stage Xenopus laevis tadpoles were placed in 100 ml of oxygenated water buffered with 2.5 mM Tris HCl buffer (pH. 7.4) and containing a concentration of carboetomidate ranging from 1 to 40[…]. Tadpoles were tipped manually every 5 min with a flame-polished pipette until the response stabilized. […] At the end of each study, tadpoles were returned to fresh water to ensure reversibility of hypnotic action. The EC50 for LORR was determined from the carboetomidate concentration dependence of LORR using the method of Waud D R, J Pharmacol Exp Ther (1972) 183: 577-607, content of which is herein incorporated by reference.
# Tadpoles: The tadpole loss of righting reflex assay was used to test for anesthetic activity. Groups of 5 early prelimb-bud stage Xenopus laevis tadpoles were placed in 100 ml of oxygenated water buffered with 2.5 mM Tris HCl buffer (pH=7) and containing a concentration of carboetomidate ranging from 1-40 μM. See Scheme 1, above, for structure of Carboetomidate. Tadpoles were tipped manually every 5 min with a flame polished pipette. […] At all concentrations, this loss of righting reflex response stabilized within 30 min of carboetomidate exposure. At the end of each study, tadpoles were returned to fresh water to ensure reversibility of hypnotic action.
# [8] = target: T1, human α1β2γ2L GABAA receptors; test: GABAA receptor electrophysiology, wild-type receptors in Xenopus oocytes (two-electrode voltage clamp); assay type: cell-based; conditions: 10 μM compound
# Method: Adult female Xenopus laevis frogs were anesthetized with 0.2% tricaine (ethyl-m-aminobenzoate) and hypothermia. Ovary lobes were then excised through a small laparotomy incision and placed in OR-2 solution (82 mM NaCl, 2 mM KCl, 2 mM MgCl2, 5 mM HEPES, pH 7.5) containing collagenase 1A (1 mg/ml) for 3 h to separate oocytes from connective tissue.
# Stage 4 and 5 oocytes were injected with messenger RNA encoding the α1, β2 (or β2M286W), and […] subunits of the human GABAA receptor (˜40 ng of messenger RNA total at a subunit ratio of 1:1:2). […]
# All electrophysiologic recordings were performed using the whole cell two-electrode voltage-clamp technique. […] Current responses were recorded using Clampex 9.2 software (Axon Instruments) and processed using a Bessel (8-pole) low-pass filter with a cutoff at 50 Hz using Clampfit 9.2 software (Axon Instruments).
# For each oocyte, the concentration of GABA that produces 5-10% of the maximal current response (EC5-10 GABA) was determined by measuring the peak current responses evoked by a range of GABA concentrations (in ND-96 buffer) and comparing them with the maximal peak current response evoked by 1 mM GABA. The effect of carboetomidate on EC5-10 GABA-evoked currents was then assessed by first perfusing the oocyte with EC5-10 GABA for 90 s and then measuring the control peak evoked current. […]
# [9] = target: T2, etomidate-insensitive mutant α1β2M286Wγ2L GABAA receptors (Homo sapiens, UniProt P14867+P47870, M310W); test: GABAA receptor electrophysiology, etomidate-insensitive mutant receptors in Xenopus oocytes; assay type: cell-based; conditions: 10 μM compound
# T2 construct: expressed in transfected cells; host or cells: Xenopus laevis oocytes injected with mRNA (subunit ratio 1:1:2)
# T2 sequence (P47870 26-512 M310W): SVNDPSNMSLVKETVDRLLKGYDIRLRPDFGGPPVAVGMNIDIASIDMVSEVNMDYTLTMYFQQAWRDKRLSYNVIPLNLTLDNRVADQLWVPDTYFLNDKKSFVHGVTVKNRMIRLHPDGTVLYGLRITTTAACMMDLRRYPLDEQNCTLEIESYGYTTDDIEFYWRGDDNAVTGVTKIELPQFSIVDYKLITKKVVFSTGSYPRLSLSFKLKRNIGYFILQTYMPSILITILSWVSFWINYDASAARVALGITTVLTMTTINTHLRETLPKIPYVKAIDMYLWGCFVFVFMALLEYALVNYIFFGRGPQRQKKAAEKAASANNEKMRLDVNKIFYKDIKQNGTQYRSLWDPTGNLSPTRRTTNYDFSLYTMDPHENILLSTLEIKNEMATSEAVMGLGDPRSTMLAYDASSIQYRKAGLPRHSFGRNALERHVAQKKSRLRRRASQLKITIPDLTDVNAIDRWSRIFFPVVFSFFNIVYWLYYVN
# T2 sequence (P14867 28-456): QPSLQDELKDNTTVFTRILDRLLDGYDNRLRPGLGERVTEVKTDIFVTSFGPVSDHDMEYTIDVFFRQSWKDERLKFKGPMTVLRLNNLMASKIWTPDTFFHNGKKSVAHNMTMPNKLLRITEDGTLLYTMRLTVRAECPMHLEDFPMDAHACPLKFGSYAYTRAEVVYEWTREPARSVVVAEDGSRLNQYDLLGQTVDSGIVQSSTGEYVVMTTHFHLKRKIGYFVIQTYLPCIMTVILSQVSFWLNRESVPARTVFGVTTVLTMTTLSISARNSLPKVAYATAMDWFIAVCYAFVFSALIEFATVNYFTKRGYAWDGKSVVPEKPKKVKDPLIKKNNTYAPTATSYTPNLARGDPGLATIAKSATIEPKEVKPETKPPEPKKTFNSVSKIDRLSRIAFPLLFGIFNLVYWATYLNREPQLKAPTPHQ
# T2 sequence (P18507 40-475 partner): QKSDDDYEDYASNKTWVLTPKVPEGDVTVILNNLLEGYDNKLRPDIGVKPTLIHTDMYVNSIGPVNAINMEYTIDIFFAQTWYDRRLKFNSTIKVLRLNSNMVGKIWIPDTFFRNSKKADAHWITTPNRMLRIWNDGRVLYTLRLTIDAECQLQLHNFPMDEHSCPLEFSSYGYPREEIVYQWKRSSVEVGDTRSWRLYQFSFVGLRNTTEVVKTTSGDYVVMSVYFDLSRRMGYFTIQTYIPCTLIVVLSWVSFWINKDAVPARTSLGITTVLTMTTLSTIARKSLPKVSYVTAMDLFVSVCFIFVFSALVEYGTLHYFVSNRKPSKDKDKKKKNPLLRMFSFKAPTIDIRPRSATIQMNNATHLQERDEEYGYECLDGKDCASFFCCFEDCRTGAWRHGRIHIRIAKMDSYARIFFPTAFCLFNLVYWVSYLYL
# Method: Stage 4 and 5 oocytes were injected with messenger RNA encoding the α1, β2 (or β2M286W), and γ21 subunits of the human GABAA receptor (˜40 ng of messenger RNA total at a subunit ratio of 1:1:2). This messenger RNA was transcribed from complementary DNA encoding for GABAA receptor α1, β2 (or β2M286W), and γ21 subunits using the mMESSAGE mMACHINE High Yield Capped RNA Transcription Kit (Ambion, Austin, Tex.). Injected oocytes were incubated in ND-96 buffer solution (96 mM NaCl, 2 mM KCl, 1 mM CaCl2, 0.8 mM MgCl2, 10 mM HEPES, pH 7.5) containing 50 U/ml of penicillin and 50 μg/ml of streptomycin at 17° C. for at least 18 h before electrophysiologic experiments.
# For each oocyte, the concentration of GABA that produces 5-10% of the maximal current response (EC5-10 GABA) was determined by measuring the peak current responses evoked by a range of GABA concentrations (in ND-96 buffer) and comparing them with the maximal peak current response evoked by 1 mM GABA. […]
# T1 sequence (P47870 25-512 limits assumed): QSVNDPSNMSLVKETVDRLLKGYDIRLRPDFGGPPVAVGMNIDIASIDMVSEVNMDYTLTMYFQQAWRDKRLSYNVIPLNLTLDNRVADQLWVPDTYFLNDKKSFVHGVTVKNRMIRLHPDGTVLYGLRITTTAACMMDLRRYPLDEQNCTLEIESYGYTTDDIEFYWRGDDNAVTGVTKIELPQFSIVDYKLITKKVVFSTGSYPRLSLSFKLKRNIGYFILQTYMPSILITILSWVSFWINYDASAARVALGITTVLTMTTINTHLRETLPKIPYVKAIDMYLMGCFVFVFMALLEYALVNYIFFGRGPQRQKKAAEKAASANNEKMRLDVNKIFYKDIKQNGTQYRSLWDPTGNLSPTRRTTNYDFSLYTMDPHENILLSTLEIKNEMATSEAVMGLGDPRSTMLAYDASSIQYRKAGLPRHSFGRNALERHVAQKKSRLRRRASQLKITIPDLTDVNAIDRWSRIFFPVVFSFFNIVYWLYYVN
# T1 sequence (P14867 28-456): as the sequence (P14867 28-456) above
# T1 sequence (P18507 40-475 partner): as the sequence (P18507 40-475 partner) above
Compound,ACTH1-24-stimulated serum corticosterone concentration versus vehicle (in words) (rats [3]),effect on mean blood pressure relative to DMSO vehicle (FIG. 7B) (rats [4]),"effect on mean blood pressure, comparison of three anesthetics (FIG. 7A) (rats [4])",anesthetic toxicity in rats (rats [5]; IV bolus),"slope of duration of anesthesia versus logarithm of anesthetic dose (rats [5]; rats, IV bolus)",onset time for LORR (rats [5]; rats),"onset time for LORR, range (rats [5]; rats)",time to LORR after IV bolus (in words) (rats [5]; rats),other results
"CCOC(=O)c1cncn1C(C)c1ccccc1 (stereo not shown) [etomidate, ethyl 3-(1-phenylethyl)imidazole-4-carboxylate]",significantly reduced,significantly reduced mean blood pressure relative to vehicle,magnitude of this decrease was less,no obvious anesthetic toxicity,27±7,4.5 ± 0.6 s,4 to 5 s,within several seconds,"concentration inducing loss of responsiveness in humans (humans): ~2 µM; concentration inducing loss of righting reflex in tadpoles (Xenopus laevis tadpoles [1]): ~2 µM; mortality [2]: 77%; ED50 (rats [5]; Rattus norvegicus, rats, IV bolus, read-out: ED50 for LORR following bolus administration): 1 ± 0.03 mg/kg; magnitude of potentiation of GABAA receptor currents [6]: 660±240%"
"CC(C)c1cccc(C(C)C)c1O [propofol, reference compound]",,,mean blood pressure decreased,,,,,,
(R)-1-(1-phenylethyl)-1H-pyrrole-2-carboxylate [carboetomidate],not different from those that had received only vehicle; also recorded: relatively unchanged versus vehicle,not significantly greater than that of DMSO vehicle alone,magnitude of this decrease was less; also recorded: depresses blood pressure significantly less than propofol or etomidate,no obvious anesthetic toxicity,16±4,33 ± 22 s,10 to 63 s,within several seconds,"toxicity in tadpoles (Xenopus laevis tadpoles [7]; 1-40 μM, recovery in fresh water): No evidence of toxicity was observed; EC50 (Xenopus laevis tadpoles [7]; LORR, Xenopus laevis tadpoles, quantal method of Waud, read-out: anesthetic EC50 (concentration at which 50% of tadpoles were anesthetized)): 5.4 ± 0.5 µM; time for LORR response to stabilize (Xenopus laevis tadpoles [7]; all concentrations (1-40 μM)): ≤ 30 min; fraction of tadpoles anesthetized (Xenopus laevis tadpoles [7]; highest concentrations, 10-40 μM): all tadpoles were anesthetized; enhancement of amplitudes of GABA-evoked currents ([8]; 3 μM GABA, wild-type): 4 fold; enhancement (potentiation) of currents mediated by wild-type receptors ([8]; EC5-10 GABA): 390±80%; ED50 for LORR following bolus administration (rats [5]; rats, IV bolus): 7 ± 2 mg/kg; effect on amplitude of GABA-evoked currents ([9]; 0.3 μM GABA, mutant M286W): little effect; enhancement of currents mediated by etomidate-insensitive mutant receptors ([9]; EC5-10 GABA): −9±16%"

# Source: patent US9187421B2, “Etomidate analogues that do not inhibit adrenocortical steroid synthesis” (THE GENERAL HOSPITAL CORPORATION, priority 2009, dated 2015)
